The values below come from patent publication EP0639585A1, “Elastase inhibitor” (BANYU PHARMACEUTICAL CO., LTD., priority 1993, dated 1995).

The assay concerns the target T1, human leukocyte elastase (Homo sapiens, UniProt P08246).
T1 sequence (P08246 30-267): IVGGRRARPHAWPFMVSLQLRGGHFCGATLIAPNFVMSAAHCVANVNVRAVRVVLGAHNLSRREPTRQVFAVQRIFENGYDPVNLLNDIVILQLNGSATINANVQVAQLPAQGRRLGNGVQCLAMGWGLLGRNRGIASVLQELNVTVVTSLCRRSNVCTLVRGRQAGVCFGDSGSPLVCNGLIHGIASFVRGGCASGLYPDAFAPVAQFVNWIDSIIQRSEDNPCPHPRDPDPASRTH
Put plainly: Elastase inhibition activity (fluorogenic substrate N-methoxy succinyl-L-alanyl-L-alanyl-L-prolyl-L-valine 4-methylcoumaryl-7-amide). Format: biochemical. The settings on record: 0.2M tris buffer pH8.5, 1M sodium chloride, 40µM substrate, 37° C, 20 minutes incubation; read-out: IC₅₀. As for the experimental part:
The inhibition activities to human leukocyte elastase were determined as follows: Each 1µl of DMSO solution of the compound and DMSO (for reference) were added to each 250µl of 0.2M tris buffer solutions (pH8.5) containing 40µM N-methoxy succinyl-L-alanyl-L-alanyl-L-prolyl-L-valine 4-methylcoumaryl-7-amide and 1M sodium chloride, and the mixtures were pre-incubated at 37° C for three minutes. Then 50µl of 0.2M tris buffer solutions (pH8.5) containing 0.2µg/ml human leukocyte elastase were added to the mixtures and the mixtures were incubated at 37° C for 20 minutes. Each 1ml of 2M acetic acid aqueous solutions were added to the mixture and the reactions were stopped and then fluorescences of the supernatants were measured and the activities were calculated. As the results, IC₅₀ values were as follows: the compound 6 = 0.78µM, the compound 4 = 6.32µM, the compound 1 = 8.48µM and the compound 5 = 9.94µM.
With `CCC[C@H](NC(=O)[C@@H]1CCCN1C(=O)[C@H](CC(C)C)NC(=O)OCc1ccccc1)C(=O)C(=O)CC1CCCCC1` [Compound 4, (4S)-4-(N-benzyloxycarbonyl-L-leucyl-L-prolyl)amino-1-cyclohexyl-2,3-heptanedione], the IC50 came out at 6.32 µM.
The figure for `CCC[C@H](NC(=O)[C@@H]1CCCN1C(=O)[C@H](CC(C)C)NC(=O)OCc1ccccc1)C(=O)C(=O)Cc1ccccc1` [Compound 6, (4S)-4-(N-benzyloxycarbonyl-L-leucyl-L-prolyl)amino-1-phenyl-2,3-heptanedione] is 0.78 µM; for `CCC[C@H](NC(=O)[C@@H]1CCCN1C(=O)[C@H](CC(C)C)NC(=O)OCc1ccccc1)C(=O)C(=O)CCC1CCCCC1` [Compound 5, (5S)-5-(N-benzyloxycarbonyl-L-leucyl-L-prolyl)amino-1-cyclohexyl-3,4-octanedione] it is 9.94 µM; for `CCC[C@H](NC(=O)[C@@H]1CCCN1C(=O)[C@H](CC(C)C)NC(C)=O)C(=O)C(=O)Cc1ccccc1` [Compound 1, (4S)-4-(N-acetyl-L-leucyl-L-prolyl)amino-1-phenyl-2,3-heptanedione] it is 8.48 µM.
